The values that follow come from patent publication US20230286958A1, “PLASMA KALLIKREIN INHIBITORS” (Merck Sharp & Dohme LLC, priority 2020, published 2023).

In one assay the target is human Factor XIa (Homo sapiens (Human), UniProt P03951). Briefly: Factor XIa Assay (fluorogenic substrate GPR-AFC). The class given is biochemical. The note with it: Factor XIa (FXIa).
Another assay concerns the target Human plasma kallikrein (Homo sapiens (Human), UniProt P03952). Briefly: Kallikrein Assay (fluorogenic substrate Acetyl-K-P-R-AFC). In kind it is biochemical. The note with it: Plasma Kallikrein (PKal). Summed up: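 Ki is derived from IC50 with the Cheng-Prusoff equation, and IC50 from the inflection point of a four-parameter logistic curve. The rate of AFC release is read with 0.5 nM purified enzyme and […] substrate at room temperature or 37 °C.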

Chain of Human plasma kallikrein (P03952 391-638): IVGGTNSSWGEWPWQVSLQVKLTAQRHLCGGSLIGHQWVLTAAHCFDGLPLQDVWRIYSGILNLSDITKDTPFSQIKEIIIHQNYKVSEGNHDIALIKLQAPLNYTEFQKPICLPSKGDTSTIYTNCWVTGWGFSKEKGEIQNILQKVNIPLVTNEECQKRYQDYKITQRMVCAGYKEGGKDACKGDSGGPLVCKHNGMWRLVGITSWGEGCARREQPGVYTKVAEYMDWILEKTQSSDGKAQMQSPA
Chain of Human plasma kallikrein (P03952 20-390 partner): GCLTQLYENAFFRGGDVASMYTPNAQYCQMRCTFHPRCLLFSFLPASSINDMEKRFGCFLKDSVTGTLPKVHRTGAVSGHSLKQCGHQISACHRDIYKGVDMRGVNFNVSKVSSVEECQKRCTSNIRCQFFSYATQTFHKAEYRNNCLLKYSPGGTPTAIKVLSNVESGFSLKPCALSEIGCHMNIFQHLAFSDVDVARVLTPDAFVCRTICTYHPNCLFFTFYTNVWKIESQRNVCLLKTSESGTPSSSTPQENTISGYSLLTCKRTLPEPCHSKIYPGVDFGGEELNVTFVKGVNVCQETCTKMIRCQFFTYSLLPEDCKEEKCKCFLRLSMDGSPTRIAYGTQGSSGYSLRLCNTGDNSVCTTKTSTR
Chain of human Factor XIa (P03951 388-625 limits assumed): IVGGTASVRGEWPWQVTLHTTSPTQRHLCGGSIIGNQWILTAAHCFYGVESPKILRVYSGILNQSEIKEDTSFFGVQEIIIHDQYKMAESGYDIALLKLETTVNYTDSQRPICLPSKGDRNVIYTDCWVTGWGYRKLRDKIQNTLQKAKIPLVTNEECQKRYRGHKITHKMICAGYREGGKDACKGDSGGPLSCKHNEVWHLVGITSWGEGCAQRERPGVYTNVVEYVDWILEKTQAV
Chain of human Factor XIa (P03951 19-387 partner limits assumed): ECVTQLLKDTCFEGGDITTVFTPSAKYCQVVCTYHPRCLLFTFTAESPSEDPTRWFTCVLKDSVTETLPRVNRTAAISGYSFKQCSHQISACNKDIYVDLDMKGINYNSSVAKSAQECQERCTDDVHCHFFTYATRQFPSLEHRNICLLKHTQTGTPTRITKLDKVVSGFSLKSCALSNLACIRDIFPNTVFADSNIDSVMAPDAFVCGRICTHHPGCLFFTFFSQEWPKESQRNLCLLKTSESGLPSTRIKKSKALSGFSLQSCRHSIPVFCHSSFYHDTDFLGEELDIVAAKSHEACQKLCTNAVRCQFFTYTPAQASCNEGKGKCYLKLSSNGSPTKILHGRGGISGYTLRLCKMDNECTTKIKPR

Regarding `COc1ncc(-c2c(OC(F)F)ccc(Cl)c2F)nc1C(=O)Nc1cnn(C(C)c2cnc(N3C[C@H]4C[C@H]4C3=O)c(C)n2)c1` (single isomer, unassigned) [Example 241, 6-(3-Chloro-6-(difluoromethoxy)-2-fluorophenyl)-3-methoxy-N-(1-((S or R)-1-(6-methyl-5-((1R,5S)-2-oxo-3-azabicyclo[3.1.0]hexan-3-yl)pyrazin-2-yl)ethyl)-1H-pyrazol-4-yl)pyrazine-2-carboxamide], the IC50 against human Factor XIa was 377 nM; against Human plasma kallikrein, 0.7 nM.
For `Cc1cc([C@H](C)n2cc(NC(=O)c3nc(-c4c(OC(F)F)ccc(Cl)c4F)cnc3C)cn2)nnc1N1C[C@H]2C[C@H]2C1=O` [Example 39, 6-(3-Chloro-6-(difluoromethoxy)-2-fluorophenyl)-3-methyl-N-(1-((S)-1-(5-methyl-6-((1R,5S)-2-oxo-3-azabigyclo[3.1.0]hexan-3-yl)pyridazin-3-yl)ethyl)-1H-pyrazol-4-yl)pyrazine-2-carboxamide], in that order: 328 nM and 0.4 nM.
For the compound `Cc1ncc(-c2c(C(F)F)ccc(Cl)c2F)nc1C(=O)Nc1cnn(C(CO)c2ccc(N3CC4CC4C3=O)nc2)c1` (single isomer, unassigned) [Example 162, 6-(3-chloro-6-(difluoromethyl)-2-fluorophenyl)-N-(1-((S or R)-2-hydroxy-1-(6-((1S,5R or 1R,5S)-2-oxo-3-azabicyclo[3.1.0]hexan-3-yl)pyridin-3-yl)ethyl)-1H-pyrazol-4-yl)-3-methylpyrazine-2-carboxamide], the IC50 at human Factor XIa is 3450 nM; on Human plasma kallikrein, 8.7 nM.
For `Cc1c(C(C)n2cc(NC(=O)c3cncc(-c4c(OC(F)F)ccc(Cl)c4F)n3)cn2)cnc(N2C[C@H]3C[C@H]3C2=O)c1F` (single isomer, unassigned) [Example 134, 6-(3-Chloro-6-(difluoromethoxy)-2-fluorophenyl)-N-(1-((R or S)-1-(5-fluoro-4-methyl-6-((1R,5S)-2-oxo-3-azabicyclo[3.1.0]hexan-3-yl)pyridin-3-yl)ethyl)-1H-pyrazol-4-yl)pyrazine-2-carboxamide], in that order: 5570 nM and 13.9 nM.
For `COCc1ncc(-c2c(C(F)F)ccc(Cl)c2F)nc1C(=O)Nc1cnn([C@@H](C)c2cnc(N3C[C@H]4C[C@H]4C3=O)nc2)c1` [Example 175, 6-(3-Chloro-6-(difluoromethyl)-2-fluorophenyl)-3-(methoxymethy-((S)-1-(2-((1R,5S)-2-oxo-3-azabicyclo[3.1.0]hexan-3-yl)pyrimidin-5-yl)ethyl)-1H-pyrazol-4-yl)pyrazine-2-carboxamide], in that order: 3680 nM and 3 nM.
The like results for `Cc1ncc(-c2c(C(F)F)ccc(Cl)c2F)nc1C(=O)Nc1cnn([C@@H](C)c2cnc(N3C[C@H]4C[C@H]4C3=O)c(O)c2)c1` [Example 217, 6-(3-Chloro-6-(difluoromethyl)-2-fluorophenyl)-N-(1-((S)-1-(5-hydroxy-6-((1R,5S)-2-oxo-3-azabicyclo[3.1.0]hexan-3-yl)pyridin-3-yl)ethyl)-1H-pyrazol-4-yl)-3-methylpyrazine-2-carboxamide] were, in that order, 4150 nM and 14.9 nM.
As for `Cc1ncc(-c2c(C#N)ccc(Cl)c2F)nc1C(=O)Nc1cnn(C(C)c2cnc(N3C[C@H]4C[C@H]4C3=O)c(F)c2C)c1` (single isomer, unassigned) [Example 136, 6-(3-Chloro-6-cyano-2-fluorophenyl)-N-(1-((R or S)-1-(5-fluoro-4-methyl-6-((1R,5S)-2-oxo-3-azabicyclo[3.1.0]hexan-3-yl)pyridin-3-yl)ethyl)-1H-pyrazol-4-yl)-3-methylpyrazine-2-carboxamide], the half-inhibitory concentration (IC50) against human Factor XIa turned out to be 591 nM; at Human plasma kallikrein it was 0.2 nM.
The like results for `Cc1cc(C(C)n2cc(NC(=O)c3cc(-c4c(C(F)F)ccc(Cl)c4F)nnc3C)cn2)cnc1N1C[C@H]2C[C@H]2C1=O` (single isomer, unassigned) [Example 121, 6-(3-Chloro-6-(difluoromethyl)-2-fluorophenyl)-3-methyl-N-(1-((S or R)-1-(5-methyl-6-((1R,5S)-2-oxo-3-azabicyclo[3.1.0]hexan-3-yl)pyridin-3-yl)ethyl)-1H-pyrazol-4-yl)pyridazine-4-carboxamide] were, in that order, over 10000 nM and 4.5 nM.
For `Cc1nc(C(C)n2cc(NC(=O)c3cncc(-c4c(OC(F)F)ccc(Cl)c4F)n3)cn2)cnc1N1C[C@H]2C[C@H]2C1=O` (single isomer, unassigned) [Example 17, 6-(3-Chloro-6-(difluoromethoxy)-2-fluorophenyl)-N-(1-((R or S)-1-(6-methyl-5-((1R,5S)-2-oxo-3-azabicyclo[3.1.0]hexan-3-yl)pyrazin-2-yl)ethyl)-1H-pyrazol-4-yl)pyrazine-2-carboxamide], in that order: 1740 nM and 0.7 nM.
For `CC(c1cnc(N2CC3CC3C2=O)nc1)n1cc(NC(=O)c2cncc(-c3c(OC(F)F)ccc(Cl)c3F)n2)cn1` (single isomer, unassigned) [Example 73, 6-(3-Chloro-6-(difluoromethoxy)-2-fluorophenyl)-N-(1-((S or R)-1-(2-((1S,5R or 1R,5S)-2-oxo-3-azabicyclo[3.1.0]hexan-3-yl)pyrimidin-5-yl)ethyl)-1H-pyrazol-4-yl)pyrazine-2-carboxamide], in that order: 2270 nM and 23.1 nM.
For `Cc1cc(C(C)n2cc(NC(=O)c3nc(-c4c(C(F)F)ccc(Cl)c4F)cnc3C)cn2)cnc1N1C[C@H]2C[C@H]2C1=O` (single isomer, unassigned) [Example 119, 6-(3-Chloro-6-(difluoromethyl)-2-fluorophenyl)-3-methyl-N-(1-((S or R)-1-(5-methyl-6-((1R,5S)-2-oxo-3-azabicyclo[3.1.0]hexan-3-yl)pyridin-3-yl)ethyl)-1H-pyrazol-4-yl)pyrazine-2-carboxamide], the figures for the IC50 on human Factor XIa and at Human plasma kallikrein were 782 nM and 0.6 nM, respectively.
Turning to `Cc1ncc(-c2c(C(F)F)ccc(Cl)c2F)nc1C(=O)Nc1cnn(Cc2cnc(N3C[C@H]4C[C@H]4C3=O)c3c2OCO3)c1` [Example 149, 6-(3-Chloro-6-(difluoromethyl)-2-fluorophenyl)-3-methyl-N-(1-((4-((1R,5S)-2-oxo-3-azabicyclo[3.1.0]hexan-3-yl)-[1,3]dioxolo[4,5-c]pyridin-7-yl)methyl)-1H-pyrazol-4-yl)pyrazine-2-carboxamide], the IC50 was 244 nM against human Factor XIa and 0.9 nM at Human plasma kallikrein.
For `CC(c1ccc(N2CC3CC3C2=O)nc1)n1cc(NC(=O)c2cncc(-c3c(C(F)F)ccc(Cl)c3F)n2)cn1` (single isomer, unassigned) [Example 11, 6-(3-Chloro-6-(difluoromethyl)-2-fluorophenyl)-N-(1-((R or S)-1-(6-((1R,5S or 1S,5R)-2-oxo-3-azabicyclo[3.1.0]hexan-3-yl)pyridin-3-yl)ethyl)-1H-pyrazol-4-yl)pyrazine-2-carboxamide], in that order: over 10000 nM and 17.2 nM.
With `Cc1c(C(C)n2cc(NC(=O)c3cncc(-c4c(OC(F)F)ccc(Cl)c4F)n3)cn2)cnc(N2C[C@H]3C[C@H]3C2=O)c1C` (single isomer, unassigned) [Example 105, 6-(3-Chloro-6-(difluoromethoxy)-2-fluorophenyl)-N-(1-((R or S)-1-(4,5-dimethyl-6-((1R,5S)-2-oxo-3-azabicyclo[3.1.0]hexan-3-yl)pyridin-3-yl)ethyl)-1H-pyrazol-4-yl)pyrazine-2-carboxamide], the 50% inhibitory concentration (IC50) is 101 nM at human Factor XIa and 0.6 nM on Human plasma kallikrein.
Consider `Cc1c(C(C)n2cc(NC(=O)c3cncc(-c4c(C(F)F)ccc(Cl)c4F)n3)cn2)nnc(N2C[C@H]3C[C@H]3C2=O)c1C` (single isomer, unassigned) [Example 111, 6-(3-Chloro-6-(difluoromethyl)-2-fluorophenyl)-N-(1-((R or S)-1-(4,5-dimethyl-6-((1R,5S)-2-oxo-3-azabicyclo[3.1.0]hexan-3-yl)pyridazin-3-yl)ethyl)-1H-pyrazol-4-yl)pyrazine-2-carboxamide], for which the results for the half-inhibitory concentration (IC50) on human Factor XIa and against Human plasma kallikrein were 108 nM and 0.4 nM, respectively.
`Cc1cc(C(C)n2cc(NC(=O)c3nc(-c4c(C(F)F)ccc(Cl)c4F)cnc3C)cn2)nnc1N1C[C@H]2C[C@H]2C1=O` (single isomer, unassigned) [Example 103, 6-(3-Chloro-6-(difluoromethyl)-2-fluorophenyl)-3-methyl-N-(1-((R or S)-1-(5-methyl-6-((1R,5S)-2-oxo-3-azabicyclo[3.1.0]hexan-3-yl)pyridazin-3-yl)ethyl)-1H-pyrazol-4-yl)pyrazine-2-carboxamide]: the results for the IC50 at human Factor XIa and against Human plasma kallikrein were 445 nM and 1.8 nM, respectively.
Take `Cc1cc(C(C)n2cc(NC(=O)c3nc(-c4c(C#N)ccc(Cl)c4F)cnc3C)cn2)cnc1N1C[C@H]2C[C@H]2C1=O` (single isomer, unassigned) [Example 140, 6-(3-Chloro-6-cyano-2-fluorophenyl)-3-methyl-N-(1-((R or S)-1-(5-methyl-6-((IR,5S)-2-oxo-3-azabicyclo[3.1.0]hexan-3-yl)pyridin-3-yl)ethyl)-1H-pyrazol-4-yl)pyrazine-2-carboxamide]: the figures for the IC50 at human Factor XIa and at Human plasma kallikrein were 972 nM and 0.6 nM, respectively.
The like results for `Cc1nc(Cn2cc(NC(=O)c3cncc(-c4c(C(F)F)ccc(Cl)c4F)n3)cn2)cnc1N1C[C@H]2C[C@H]2C1=O` [Example 47, 6-(3-Chloro-6-(difluoromethyl)-2-fluorophenyl)-N-(1-((6-methyl-5-((1R,5S)-2-oxo-3-azabicyclo[3.1.0]hexan-3-yl)pyrazin-2-yl)methyl)-1H-pyrazol-4-yl)pyrazine-2-carboxamide] were, in that order, 1150 nM and 2.5 nM.

By IC50 is commonly meant the midpoint of a concentration-inhibition curve. A low value points to higher potency.
